Results published in patent publication US20230372272A1, “USE OF CYSTINE AND DERIVATIVES THEREOF AS ANTI-THROMBOTIC AND THROMBOLYTIC AGENTS” (Georgia Tech Research Corporation, priority 2020, published 2023).

B1: Abciximab: inhibits platelet thrombus formation by blocking the glycoprotein IIb/IIIa through an antibody (antibody, chains of the INN, looked up, V domains shown)
VH: EVQLQQSGTVLARPGASVKMSCEASGYTFTNYWMHWVKQRPGQGLEWIGAIYPGNSDTSYIQKFKGKAKLTAVTSTTSVYMELSSLTNEDSAVYYCTLYDGYYVFAYWGQGTLVTVSA
VL: EIVLTQSPVTLSVTPGDSVSLSCRASRDISNNLHWFQQTSHESPRLLIKYASQSMSGIPSRFSGSGSGTDFTLSINSVETEDFGMYFCQQTNSWPYTFGGGTKLEIK
modifications: Fab
B2: ADAMTS-13: recombinant human ADAMTS-13, a protease that cleaves VWF (protein, UniProt Q76LX8 75-1427, looked up)
A disintegrin and …: AAGGILHLELLVAVGPDVFQAHQEDTERYVLTNLNIGAELLRDPSLGAQFRVHLVKMVILTEPEGAPNITANLTSSLLSVCGWSQTINPEDDTDPGHADLVLYITRFDLELPDGNRQVRGVTQLGGACSPTWSCLITEDTGFDLGVTIAHEIGHSFGLEHDGAPGSGCGPSGHVMASDGAAPRAGLAWSPCSRRQLLSLLSAGRARCVWDPPRPQPGSAGHPPDAQPGLYYSANEQCRVAFGPKAVACTFAREHLDMCQALSCHTDPLDQSSCSRLLVPLLDGTECGVEKWCSKGRCRSLVELTPIAAVHGRWSSWGPRSPCSRSCGGGVVTRRRQCNNPRPAFGGRACVGADLQAEMCNTQACEKTQLEFMSQQCARTDGQPLRSSPGGASFYHWGAAVPHSQGDALCRHMCRAIGESFIMKRGDSFLDGTRCMPSGPREDGTLSLCVSGSCRTFGCDGRMDSQQVWDRCQVCGGDNSTCSPRKGSFTAGRAREYVTFLTVTPNLTSVYIANHRPLFTHLAVRIGGRYVVAGKMSISPNTTYPSLLEDGRVEYRVALTEDRLPRLEEIRIWGPLQEDADIQVYRRYGEEYGNLTRPDITFTYFQPKPRQAWVWAAVRGPCSVSCGAGLRWVNYSCLDQARKELVETVQCQGSQQPPAWPEACVLEPCPPYWAVGDFGPCSASCGGGLRERPVRCVEAQGSLLKTLPPARCRAGAQQPAVALETCNPQPCPARWEVSEPSSCTSAGGAGLALENETCVPGADGLEAPVTEGPGSVDEKLPAPEPCVGMSCPPGWGHLDATSAGEKAPSPWGSIRTGAQAAHVWTPAAGSCSVSCGRGLMELRFLCMDSALRVPVQEELCGLASKPGSRREVCQAVPCPARWQYKLAACSVSCGRGVVRRILYCARAHGEDDGEEILLDTQCQGLPRPEPQEACSLEPCPPRWKVMSLGPCSASCGLGTARRSVACVQLDQGQDVEVDEAACAALVRPEASVPCLIADCTYRWHVGTWMECSVSCGDGIQRRRDTCLGPQAQAPVPADFCQHLPKPVTVRGCWAGPCVGQGTPSLVPHEEAAAPGRTTATPAGASLEWSQARGLLFSPAPQPRRLLPGPQENSVQSSACGRQHLEPTGTIDMRGPGQADCAVAIGRPLGEVVTLRVLESSLNCSAGDMLLLWGRLTWRKMCRKLLDMTFSSKTNTLVVRQRCGRPGGGVLLRYGSQLAPETFYRECDMQLFGPWGEIVSPSLSPATSNAGGCRLFINVAPHARIAIHALATNMGAGTEGANASYILIRDTHSLRTTAFHGQQVLYWESESSQAEMEFSEGFLKAQASLRGQYWTLQSWVPEMQDPQSWKGKEGT

Legend:
pH of DiNAC solution = format: physicochemical
Experimental: (§1) Pharmacologic Agents: Recombinant human tPA (Sigma-Aldrich, St. Louis, MO), recombinant human ADAMTS-13 (MyBiosource, San Diego, CA), abciximab (ReoPro was kindly provided by Dr. Kevin Maher at Emory/CHOA), NAC (Thermo Fisher Scientific, Waltham, MA), and DiNAC (Cayman Chemical, Ann Arbor, Ml) or control (PBS) treatments were perfused for an hour at a flow rate of 1 ml/min. Agent solutions were made by dissolution or dilution in PBS. The in vitro flow system setup and image acquisition are shown in FIG. 2, and the concentrations of each agent are detailed in Table 2.
To confirm the efficacy of DiNAC, the dose response was tested at increasing concentrations of 0.02, 0.2, 2, and 20 mM. The thrombus area reduction was dependent on the concentration of DiNAC (FIG. 4). […] Considering the practical use of the DiNAC as a thrombolytic in a clinical setting, the 20 mM DiNAC with sodium bicarbonate to a final pH=7. Neutralization of 20 mM DiNAC reduced the variance from 47% to 12% in surface area reduction (44±47% vs 59±12%, p=0.77, FIG. 4).

[1] = test system: fibrin clots from recalcified platelet rich plasma (PRP); test: Red clot lysis under stagnant conditions, PRP clots; format: cell-based, Porcine; conditions: 48 h, DiNAC and NAC at 2 mM
Text: (§2) Blood Collection: Porcine blood was collected at a local abattoir immediately following slaughter into 3.5 U/mL heparin (Thermo Fisher Scientific, Waltham, MA) or 3.2% sodium citrate (Sigma-Aldrich, St. Louis, MO). Whole blood was gently agitated using an Orbit LS shaker (Laboratory Supply Network, Atkinson, NH) until perfusion and used in experiments as soon as possible the same day as collection.
(§3) Red clot formation and lysis: Platelet rich plasma (PRP) was made by separating citrated whole blood via gravity over a 2 h period and collecting the supernatant. Separation via gravity was employed instead of centrifugation to avoid platelet damage and activation. Citrated whole blood or PRP was then recalcified with CaCl2 to a final [Ca^2+] of 10 mM (Griffin, M. T., Kim, D. & Ku, D. N. Shear-induced platelet aggregation: 3D-grayscale microfluidics for repeatable and localized occlusive thrombosis. Biomicrofluidics 13, 2019), and 200 μl was transferred into 500 μal centrifuge tubes and allowed to clot and retract for 30 min. The clot was then incubated with 100 μl of either agent or control solution. The treatment solution was exchanged by removing the top 100 μl and replacement with fresh solution at 3, 6, 12, 24, and 48 h of incubation. The weight of the tube was measured immediately post-clot formation and at each timepoint after removal of old solution and prior to the replacement with fresh solution.

white clots = test: Example 3: thrombolytic activity on white clots, procedures of Examples 1 and 2; format: cell-based, Porcine; conditions: DiNAC: clot breakup over 10 minutes; comparators at 1 hour
Experimental: In this example, use of DiNAC and other agents as anti-thrombotic agents was tested. A white clot formation in the artery system was modeled by a collagen coated glass capillary tube (Ku DN, Flannery CJ. Development of a flow-through system to create occluding thrombus, Biorheology, 2007; 44(4)273-84). Porcine blood was perfused into the capillary tube using a constant pressure head or a constant flow rate (Para AN, Ku DN. A low-volume, single pass in vitro system of high shear thrombosis in a stenosis, Thrombosis Research, 2013, 131(5):418-24). After clot formation, a thrombolytic agent was perfused into the capillary tube. The detailed capillary tube experimental protocol is summarized below.
In this example, the thrombolytic activity of DiNAC and other lytic agents was tested, using the procedures described in Examples 1 and 2.

[2] = test system: platelet-rich thrombi from heparinized human whole blood; test: Example 4: thrombolysis of human blood thrombi in 3 mm collagen-coated stenotic capillary tubes; format: cell-based; conditions: human whole blood thrombus
Experimental: In this example, an in-vitro randomized trial was performed using heparinized human blood in collagen-coated glass capillary tubes with a designed stenosis, mimicking arterial disease. Heparinized human blood was then infused through 3 mm capillary tubes at a constant flow rate, during which near-occlusive thrombi were formed at the region of stenosis (FIG. 11). DiNAC was then infused at a constant flow rate through the capillary tubes in order to observe thrombolytic activity, using a combination of live pressure monitoring and microscopic image capture. All infusions were control-matched with a phosphate-buffered saline solution in lieu of DiNAC.

[3] = test system: VWF- and platelet-rich white thrombi; test: Lysis of platelet-rich white thrombi in collagen-coated stenotic capillary tube under arterial shear (perfusion of lytic agents); format: cell-based, Porcine
Experimental: Collagen Coating: The stenotic glass test sections (inner diameter=1.5 mm) described herein were made by the Chemistry and Biochemistry Glass Shop at Georgia Institute of Technology. The % stenosis by diameter reduction ranged from 60% to 80%. Fibrillar equine collagen (type I; Chrono-Log Corporation, Havertown, PA) was diluted 9:1 in NaCl (Sigma-Aldrich, St. Louis, MO) and incubated in the test section at the stenosis for 24 h in a warm, moist environment (Para, A., Bark, D., Lin, A. & Ku, D. Rapid platelet accumulation leading to thrombotic occlusion. Ann Biomed Eng 39, 1961-1971, 2011; Para, A. N. & Ku, D. N. A low-volume, single pass in-vitro system of high shear thrombosis in a stenosis. Thromb Res 131, 418-424, 2013).
as §2
Syringe Perfusion: Lightly heparinized whole blood was perfused through the stenotic test section using a syringe pump. The flow rate was set so that the initial wall shear rate in the stenosis was 3,500 s^−1. A pressure transducer was connected in-line upstream of the stenosis (FIG. 2A). A dissecting microscope with a camera (PCO-Tech Incorporated, Romulus, MI) was used to capture images in real-time during perfusion. Blood perfusion continued until the upstream pressure increased by 30 mmHg (equivalent to an arterial pressure head in vivo) as a result of platelet thrombus formation in the stenotic section. Perfusion with a syringe pump (constant flow rate over constant pressure head) ensured that the thrombi were never fully occlusive, allowing subsequent perfusion for the induction of lysis.
as §1
Real-time image capture (5 frames per second) of the stenosis continued throughout treatment perfusion.
Data Analysis: The thrombi surface area (which was colored green) was calculated using manual pixel counting in the open-source GNU Image Manipulation Program (GIMP, Version 2.10.8, 1995-2018). Surface area reduction was calculated by % pixel reduction versus the occlusion image. Analysis of variance (ANOVA) was used to test for statistical differences between groups, with the significance set at p<0.05.
In this example, a stenotic capillary tube model, which potentiates VWF- and platelet-rich white thrombi in an arterial setting on a collagen-coated stenosis was used (Para, A., Bark, D., Lin, A. & Ku, D. Rapid platelet accumulation leading to thrombotic occlusion. Ann Biomed Eng 39, 1961-1971, 2011; Ku, D. N. & Flannery, C. J. Development of a flow-through system to create occluding thrombus. Biorheology 44, 273-284, 2007; Para, A. N. & Ku, D. N. A low-volume, single pass in-vitro system of high shear thrombosis in a stenosis. Thromb Res 131, 418-424, 2013) to test lysis of 90% occlusive white thrombi (FIG. 2) and perfused low (2 mM) and high (20 mM) concentrations of NAC and DiNAC solutions. As illustrated in FIG. 2. DiNAC, but not NAC, achieved thrombolysis over 60 minutes of perfusion (FIG. 3A-3D). 2 mM and 20 mM DiNAC lysed most of the thrombi (>95%) within 14 min and 1.5 min, respectively (FIG. 3A-3B).

[4] = test system: fibrin clots from recalcified citrated whole blood; test: Red clot lysis under stagnant conditions, whole blood clots; format: cell-based, Porcine; conditions: whole blood clot, 48 h; DiNAC and NAC at 2 mM
Text: as §2, §3

[5] = test system: FeCl3 injury-induced thrombus; parameters: dose or concentration left out as unconfirmed; conditions: after a 60 min treatment; FeCl3 injury in vivo; ADAMTS-13; cited from earlier work

Row | Molecule | pH of solution (pH of DiNAC solution; 2 mM solution) | pH of solution (pH of DiNAC solution; 20 mM solution) | PRP clot lysis over 48 h [1] | thrombolytic activity on white clots (white clots) | time to complete lysis of the white clot ([2]; 20 mM perfusion) [min] | thrombus area vs control ([3]; 0.02 mM, 60 min perfusion) | thrombus area reduction ([3]; 0.2 mM, 60 min perfusion) [%] | thrombus surface area reduction ([3]; 20 mM acidic solution (not neutralized), 60 min perfusion) [%] | thrombus surface area reduction ([3]; 20 mM neutralized with sodium bicarbonate to pH=7, 60 min perfusion) [%] | whole blood clot lysis over 48 h [4] | reduction in thrombus area ([3]; […] (Table 2), 60 min perfusion) [%] | reduction of thrombus size [5] [%] | effect on clots and flow ([2]; perfusion) | thrombus area reduction ([3]; 1 g/mL (Table 2), 60 min perfusion) [%]
1 | CC(=O)N[C@@H](CSSC[C@H](NC(C)=O)C(=O)O)C(=O)O [DiNAC, N,N′-diacetyl-cystine] | 7 | 2 | no effect on red clots | highly effective at causing lysis of white clots | ≤ 10 | not significantly different from the control | 46±15 | 44±47 | 59±12 | no effect on red clots | – | – | – | –
2 | B1 | – | – | – | minimal effects with no perfusion at 1 hour | – | – | – | – | – | – | 22±11 | – | – | –
3 | B2 | – | – | no effect on red clots | minimal effects with no perfusion at 1 hour | – | – | – | – | – | no effect on red clots | – | 62.3 | did not alter the clots or restore flow | 19±8
